Calls of active or inactive are those of the source.
Columns and labels:
[1] = microbe, parasite or virus in culture; format: functional; conditions: Mycobacterium tuberculosis
[2] = Luminescence Cell-Based Dose Retest to Confirm Inhibitors of Cancer Stem Cells. [Related pubchem assays (depositor defined):AID2717, AID2721]; format: functional; conditions: Homo sapiens
[3] = target: T1, Short transient receptor potential channel 4 (Mus musculus, UniProt Q9QUQ5); assay: block of DAMGO-driven TRPC4 calcium entry – cell-based, HEK293 TRPC4/mu-opioid, Fluo-4 calcium, dose response (AID 434942); format: functional;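 note: potency of inhibitors blocking the TRPC4 calcium response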
T1 sequence (Q9QUQ5 whole entry): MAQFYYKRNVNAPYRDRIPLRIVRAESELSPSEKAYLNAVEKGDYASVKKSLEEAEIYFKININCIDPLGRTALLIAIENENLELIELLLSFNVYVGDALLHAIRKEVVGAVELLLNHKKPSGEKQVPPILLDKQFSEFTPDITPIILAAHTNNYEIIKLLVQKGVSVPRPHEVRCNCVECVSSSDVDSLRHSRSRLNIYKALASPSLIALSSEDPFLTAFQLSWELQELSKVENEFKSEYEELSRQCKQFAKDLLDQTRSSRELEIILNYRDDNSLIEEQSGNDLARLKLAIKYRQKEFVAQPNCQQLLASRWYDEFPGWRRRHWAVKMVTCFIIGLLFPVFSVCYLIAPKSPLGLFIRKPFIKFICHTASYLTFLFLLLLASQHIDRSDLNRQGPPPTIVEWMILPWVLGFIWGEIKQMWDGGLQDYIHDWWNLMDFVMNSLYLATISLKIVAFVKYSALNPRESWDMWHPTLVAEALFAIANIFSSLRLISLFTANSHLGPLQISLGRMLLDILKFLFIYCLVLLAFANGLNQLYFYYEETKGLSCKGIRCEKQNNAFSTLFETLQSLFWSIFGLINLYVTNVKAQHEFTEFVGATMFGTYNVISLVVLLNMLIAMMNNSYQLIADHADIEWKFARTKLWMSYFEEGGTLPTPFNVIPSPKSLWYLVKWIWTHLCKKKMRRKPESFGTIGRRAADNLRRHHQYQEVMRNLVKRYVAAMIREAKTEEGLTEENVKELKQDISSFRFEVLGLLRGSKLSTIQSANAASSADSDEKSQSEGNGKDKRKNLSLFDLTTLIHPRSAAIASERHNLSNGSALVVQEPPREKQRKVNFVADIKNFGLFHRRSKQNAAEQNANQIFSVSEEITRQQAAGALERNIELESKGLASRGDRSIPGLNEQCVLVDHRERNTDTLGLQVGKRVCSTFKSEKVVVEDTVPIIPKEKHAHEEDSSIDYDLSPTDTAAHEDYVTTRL

[4] = A Cell Based Secondary Assay to Explore Cytotoxicity in THP-1 Cells of Compounds that Modulate Mycobacterium tuberculosis in Media Containing Glycerol versus Media without Glycerol (2).; format: functional
[5] = Vero cell cytotoxicity, cytotoxicity control for M. tuberculosis inhibitor project, purified and synthesized samples, set 3 (AID 504684); format: functional
[6] = A Cell Based Secondary Assay to Explore Cytotoxicity in HepG2 Cells of Compounds that Modulate Mycobacterium tuberculosis in Media Containing Glycerol versus Media without Glycerol (2).; format: functional
[7] = target: Sphingosine 1-phosphate receptor 1 (Homo sapiens, UniProt P21453); assay: Late-stage fluorescence-based dose-response cell-based counterscreen assay to identify agonists of the Sphingosine 1-Phosphate Receptor 4 (S1P4): Sphingosine 1-Phosphate Receptor 1 (S1P1) agonist assay Set 2.; format: functional
[8] = target: Sphingosine 1-phosphate receptor 5 (Homo sapiens, UniProt Q9H228); assay: activation of human S1P5 receptor – cell-based, fluorescence, set 2, counter-screen for S1P4 agonist project, late-stage follow-up (AID 504867); format: functional
[9] = target: Sphingosine 1-phosphate receptor 3 (Homo sapiens, UniProt Q99500); assay: Late-stage fluorescence-based dose-response cell-based counterscreen assay to identify agonists of the Sphingosine 1-Phosphate Receptor 4 (S1P4): Sphingosine 1-Phosphate Receptor 3 (S1P3) agonist assay Set 2.; format: functional
[10] = target: Sphingosine 1-phosphate receptor 2 (Homo sapiens, UniProt O95136); assay: activation of human S1P2 receptor – cell-based, fluorescence, set 2, counter-screen for S1P4 agonist project, late-stage follow-up (AID 504873); format: functional
[11] = target: Mitogen-activated protein kinase 8 (Homo sapiens, UniProt P45983); format: functional;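 note: value comes from one member of a kinome-wide kinase profiling panel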
[12] = target: Serine/threonine-protein kinase pim-1 (Homo sapiens, UniProt P11309); format: functional
[13] = target: Serine/threonine-protein kinase Chk1 (Homo sapiens, UniProt O14757); format: functional;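 note: measured as one member of a kinome-wide kinase profiling panel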
[14] = target: Dual specificity protein kinase CLK4 (Homo sapiens, UniProt Q9HAZ1); format: functional
[15] = target: Protein disulfide-isomerase (Homo sapiens, UniProt P07237); assay: inhibition of PDI-driven insulin aggregation – biochemical, turbidity, absorbance, cherry-picked samples, dose response (AID 602350); format: functional
[16] = P. falciparum Dd2 growth inhibitors, dose response, SYBR Green, cherry-picked samples (AID 1159567); format: functional, cell-based
[17] = target: ALK tyrosine kinase receptor (Homo sapiens, UniProt Q9UM73); format: functional;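 note: ALK tested as one member of a kinase panel screen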
[18] = target: Wee1-like protein kinase (Homo sapiens, UniProt P30291); assay: Navigating the Kinome. Panel member name: WEE1; format: functional
[19] = target: cAMP-dependent protein kinase catalytic subunit PRKX (Homo sapiens, UniProt P51817); format: functional
[20] = target: Inhibitor of nuclear factor kappa-B kinase subunit epsilon (Homo sapiens, UniProt Q14164); assay: Navigating the Kinome. Panel member name: IKBKE; format: functional
[21] = target: Voltage-dependent T-type calcium channel subunit alpha-1H (Homo sapiens, UniProt O95180); format: functional;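 note: channel activity triggered by adding a high calcium stimulation buffer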
[22] = target: T2, High affinity choline transporter 1 (Homo sapiens, UniProt Q9GZV3); assay: human choline transporter potentiators, potency – cell-based, 10-point CRC, membrane potential dye, dose response (AID 602376); format: functional
T2 sequence (Q9GZV3 whole entry): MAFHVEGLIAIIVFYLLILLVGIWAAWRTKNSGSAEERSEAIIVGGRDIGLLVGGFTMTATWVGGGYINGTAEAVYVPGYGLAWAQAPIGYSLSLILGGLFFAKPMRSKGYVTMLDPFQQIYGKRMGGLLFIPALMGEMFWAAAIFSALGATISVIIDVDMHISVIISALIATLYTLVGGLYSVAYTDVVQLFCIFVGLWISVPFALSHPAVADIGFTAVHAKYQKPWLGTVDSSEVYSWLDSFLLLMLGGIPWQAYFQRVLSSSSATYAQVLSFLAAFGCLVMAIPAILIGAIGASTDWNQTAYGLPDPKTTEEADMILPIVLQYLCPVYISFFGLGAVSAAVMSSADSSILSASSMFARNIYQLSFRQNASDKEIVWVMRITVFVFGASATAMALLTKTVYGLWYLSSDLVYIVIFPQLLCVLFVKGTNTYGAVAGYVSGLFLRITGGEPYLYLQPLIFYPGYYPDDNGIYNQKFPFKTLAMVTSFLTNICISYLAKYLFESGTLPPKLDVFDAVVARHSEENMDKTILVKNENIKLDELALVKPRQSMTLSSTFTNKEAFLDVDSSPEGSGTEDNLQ

[23] = target: Cell division cycle 7-related protein kinase (Homo sapiens, UniProt O00311); format: functional;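 note: value obtained from a kinome-wide kinase panel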
[24] = system: CHO-K1; assay: (§1) Counterscreen for antagonists of the orexin 1 receptor (OX1R; HCRTR1): Homogeneous time resolved fluorescence (HTRF)-based cell-based dose response assay to identify antagonists of the parental CHO-K1 cell line. [Related pubchem assays (depositor defined):AID434989, AID435008, AID463079, AID485270, AID492963, AID492964, AID492965, AID493232, AID504699, AID504701]; format: functional; conditions: Cricetulus griseus
[25] = as §1, with “Fluorescence-based” for “Homogeneous time resolved fluorescence (HTRF)-based”, “cell-based high throughput” for “cell-based”, “CHO” for “CHO-K1”; format: functional
[26] = target: T3, Orexin/Hypocretin receptor type 1 (Homo sapiens, UniProt O43613); assay: Homogeneous Time Resolved Fluorescence (HTRF)-based cell-based high throughput dose response assay for antagonists of the orexin 1 receptor (OX1R; HCRTR1). [Related pubchem assays (depositor defined):AID434989, AID435008, AID463079, AID485270, AID492963, AID492964, AID492965, AID493232, AID504717, AID504718]; format: functional
T3 sequence (O43613 whole entry): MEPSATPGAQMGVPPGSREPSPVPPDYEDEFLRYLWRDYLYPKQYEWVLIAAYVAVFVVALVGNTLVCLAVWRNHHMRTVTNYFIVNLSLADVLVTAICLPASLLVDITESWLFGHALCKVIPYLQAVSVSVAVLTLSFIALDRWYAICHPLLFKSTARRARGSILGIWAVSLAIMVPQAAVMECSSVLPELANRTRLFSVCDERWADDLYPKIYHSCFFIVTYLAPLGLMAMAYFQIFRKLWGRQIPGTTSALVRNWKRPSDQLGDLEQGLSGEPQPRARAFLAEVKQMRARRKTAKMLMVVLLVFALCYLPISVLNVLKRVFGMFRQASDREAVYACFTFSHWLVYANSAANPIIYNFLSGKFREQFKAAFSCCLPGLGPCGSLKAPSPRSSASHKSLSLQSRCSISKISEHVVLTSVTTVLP

[27] = target: T3, Orexin/Hypocretin receptor type 1; assay: Fluorescence-based cell-based high throughput dose response assay for antagonists of the orexin 1 receptor (OX1R; HCRTR1). [Related pubchem assays (depositor defined):AID434989, AID435008, AID463079, AID485270, AID492963, AID492964, AID492965, AID493232, AID504717, AID504718]; format: functional
[28] = target: T4, Orexin receptor type 2 (Homo sapiens, UniProt O43614); assay: Counterscreen assay for antagonists of the orexin 1 receptor (OX1R; HCRTR1): Fluorescence-based cell-based dose response assay for antagonists of the orexin 2 receptor (OX2R; HCRTR2), run by assay provider.; format: functional
[29] = target: T4, Orexin receptor type 2; assay: Counterscreen assay for antagonists of the orexin 1 receptor (OX1R; HCRTR1): Homogeneous Time Resolved Fluorescence (HTRF)-based cell-based dose response assay for antagonists of the orexin 2 receptor (OX2R; HCRTR2), run by assay provider.; format: functional
[30] = target: G-protein coupled receptor 55 (Homo sapiens, UniProt Q9Y2T6); assay: inhibition of LPI-stimulated GPR55 beta-arrestin translocation – imaging, U2OS, beta-arrestin-GFP, LPI agonist, primary screen (AID 2013); format: functional;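 note: antagonist potency measured as reduced agonist-driven arrestin aggregation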
[31] = target: Ephrin type-A receptor 4 (Mus musculus, UniProt Q03137); assay: EphA4 ligand-binding antagonists – biochemical, colorimetric, mouse EphA4, primary screen (AID 689); format: functional
[32] = target: Botulinum neurotoxin type A (Clostridium botulinum (strain Hall / ATCC 3502 / NCTC 13319 / Type A), UniProt P0DPI1); assay: High-throughput multiplex microsphere dose response for inhibitors of toxin protease, specifically Botulinum neurotoxin light chain A protease, compounds from Cherry Pick 01.; format: functional; conditions: read-out: EC50_MICROM
Botulinum neurotoxin type A, sequence (P0DPI1 2-448 limits assumed): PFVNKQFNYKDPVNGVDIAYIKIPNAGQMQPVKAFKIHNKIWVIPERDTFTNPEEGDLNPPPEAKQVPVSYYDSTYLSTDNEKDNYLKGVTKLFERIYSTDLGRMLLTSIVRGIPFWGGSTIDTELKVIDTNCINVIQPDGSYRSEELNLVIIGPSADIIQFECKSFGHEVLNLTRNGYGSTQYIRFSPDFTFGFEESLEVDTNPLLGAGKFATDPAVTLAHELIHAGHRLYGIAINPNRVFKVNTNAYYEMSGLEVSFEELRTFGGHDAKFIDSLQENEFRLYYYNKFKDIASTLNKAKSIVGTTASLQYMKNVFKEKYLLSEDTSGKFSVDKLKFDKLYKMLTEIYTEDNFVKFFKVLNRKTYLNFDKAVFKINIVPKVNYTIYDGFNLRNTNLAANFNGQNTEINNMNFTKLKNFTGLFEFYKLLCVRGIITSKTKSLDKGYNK

ALK tyrosine kinase receptor, sequence (Q9UM73 whole entry): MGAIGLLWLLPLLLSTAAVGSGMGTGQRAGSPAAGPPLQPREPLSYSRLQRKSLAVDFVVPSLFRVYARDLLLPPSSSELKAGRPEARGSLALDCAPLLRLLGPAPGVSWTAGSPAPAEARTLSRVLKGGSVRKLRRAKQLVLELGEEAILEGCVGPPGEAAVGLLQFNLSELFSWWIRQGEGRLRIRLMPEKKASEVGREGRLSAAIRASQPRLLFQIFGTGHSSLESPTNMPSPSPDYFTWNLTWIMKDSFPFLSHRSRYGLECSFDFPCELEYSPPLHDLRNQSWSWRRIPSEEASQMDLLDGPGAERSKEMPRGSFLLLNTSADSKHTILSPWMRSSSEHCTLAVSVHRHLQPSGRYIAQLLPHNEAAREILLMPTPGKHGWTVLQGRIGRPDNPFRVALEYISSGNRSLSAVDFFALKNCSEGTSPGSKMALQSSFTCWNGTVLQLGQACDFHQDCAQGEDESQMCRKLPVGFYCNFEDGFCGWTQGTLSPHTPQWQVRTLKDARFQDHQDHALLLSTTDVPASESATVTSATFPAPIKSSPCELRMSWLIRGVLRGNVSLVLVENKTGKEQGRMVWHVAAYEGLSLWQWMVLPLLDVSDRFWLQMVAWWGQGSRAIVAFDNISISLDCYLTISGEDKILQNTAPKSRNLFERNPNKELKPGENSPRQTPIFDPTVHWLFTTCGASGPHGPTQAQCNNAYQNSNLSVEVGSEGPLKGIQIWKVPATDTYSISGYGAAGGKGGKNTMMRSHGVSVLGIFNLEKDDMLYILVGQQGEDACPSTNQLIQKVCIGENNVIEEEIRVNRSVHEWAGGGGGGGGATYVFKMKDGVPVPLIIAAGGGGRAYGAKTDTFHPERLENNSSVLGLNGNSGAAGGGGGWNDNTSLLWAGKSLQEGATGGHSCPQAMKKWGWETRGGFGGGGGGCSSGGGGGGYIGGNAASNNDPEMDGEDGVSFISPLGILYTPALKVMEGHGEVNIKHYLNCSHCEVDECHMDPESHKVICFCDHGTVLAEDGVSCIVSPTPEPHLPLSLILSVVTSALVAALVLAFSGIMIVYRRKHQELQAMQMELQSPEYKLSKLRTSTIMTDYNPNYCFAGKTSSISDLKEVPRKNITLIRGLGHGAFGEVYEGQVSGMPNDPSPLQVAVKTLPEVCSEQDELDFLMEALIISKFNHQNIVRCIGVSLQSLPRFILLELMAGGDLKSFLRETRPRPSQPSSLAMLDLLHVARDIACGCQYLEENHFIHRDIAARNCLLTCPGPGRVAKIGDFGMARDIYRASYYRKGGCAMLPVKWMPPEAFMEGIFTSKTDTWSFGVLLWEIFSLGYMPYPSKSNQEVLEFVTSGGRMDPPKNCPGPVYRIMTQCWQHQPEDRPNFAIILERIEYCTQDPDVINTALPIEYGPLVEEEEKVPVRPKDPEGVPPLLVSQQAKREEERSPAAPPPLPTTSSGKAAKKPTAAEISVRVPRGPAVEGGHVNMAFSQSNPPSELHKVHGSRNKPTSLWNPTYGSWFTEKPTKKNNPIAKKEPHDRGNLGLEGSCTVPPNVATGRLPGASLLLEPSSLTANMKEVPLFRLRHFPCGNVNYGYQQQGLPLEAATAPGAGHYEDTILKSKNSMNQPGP
T4 sequence (O43614 whole entry): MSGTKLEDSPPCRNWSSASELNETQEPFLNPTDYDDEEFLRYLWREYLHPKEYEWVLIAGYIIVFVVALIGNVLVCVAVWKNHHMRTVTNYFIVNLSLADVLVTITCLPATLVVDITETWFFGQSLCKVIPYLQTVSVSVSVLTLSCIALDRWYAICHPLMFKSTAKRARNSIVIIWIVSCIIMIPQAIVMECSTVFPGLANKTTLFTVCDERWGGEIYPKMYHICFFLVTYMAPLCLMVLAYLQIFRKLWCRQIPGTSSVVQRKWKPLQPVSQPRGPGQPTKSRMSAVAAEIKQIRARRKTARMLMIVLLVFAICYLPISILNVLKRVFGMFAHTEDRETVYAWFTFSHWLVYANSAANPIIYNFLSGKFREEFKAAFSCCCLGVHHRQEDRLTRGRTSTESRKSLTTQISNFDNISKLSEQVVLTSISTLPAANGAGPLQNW
Sphingosine 1-phosphate receptor 1, sequence (P21453 whole entry): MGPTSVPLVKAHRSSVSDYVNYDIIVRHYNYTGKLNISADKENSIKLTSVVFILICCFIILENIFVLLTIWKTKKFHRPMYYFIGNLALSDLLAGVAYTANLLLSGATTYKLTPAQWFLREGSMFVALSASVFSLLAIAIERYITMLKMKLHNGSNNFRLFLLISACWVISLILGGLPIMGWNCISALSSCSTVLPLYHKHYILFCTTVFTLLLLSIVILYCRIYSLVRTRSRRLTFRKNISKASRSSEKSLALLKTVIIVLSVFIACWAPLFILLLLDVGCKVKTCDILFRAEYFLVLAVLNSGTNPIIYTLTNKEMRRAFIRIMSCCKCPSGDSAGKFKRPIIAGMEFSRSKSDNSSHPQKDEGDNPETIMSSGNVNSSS
Mitogen-activated protein kinase 8, sequence (P45983 whole entry): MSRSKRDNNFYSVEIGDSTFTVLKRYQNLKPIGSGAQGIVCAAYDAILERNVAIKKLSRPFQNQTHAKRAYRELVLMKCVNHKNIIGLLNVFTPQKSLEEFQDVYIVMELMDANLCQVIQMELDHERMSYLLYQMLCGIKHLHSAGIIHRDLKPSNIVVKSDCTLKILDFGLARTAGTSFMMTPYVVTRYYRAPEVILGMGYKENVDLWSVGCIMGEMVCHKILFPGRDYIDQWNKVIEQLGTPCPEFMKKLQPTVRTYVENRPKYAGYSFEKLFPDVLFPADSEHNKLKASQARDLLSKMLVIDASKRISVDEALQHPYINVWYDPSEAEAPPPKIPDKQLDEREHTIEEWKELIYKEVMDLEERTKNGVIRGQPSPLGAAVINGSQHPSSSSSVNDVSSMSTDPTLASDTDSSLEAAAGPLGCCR
Serine/threonine-protein kinase Chk1, sequence (O14757 whole entry): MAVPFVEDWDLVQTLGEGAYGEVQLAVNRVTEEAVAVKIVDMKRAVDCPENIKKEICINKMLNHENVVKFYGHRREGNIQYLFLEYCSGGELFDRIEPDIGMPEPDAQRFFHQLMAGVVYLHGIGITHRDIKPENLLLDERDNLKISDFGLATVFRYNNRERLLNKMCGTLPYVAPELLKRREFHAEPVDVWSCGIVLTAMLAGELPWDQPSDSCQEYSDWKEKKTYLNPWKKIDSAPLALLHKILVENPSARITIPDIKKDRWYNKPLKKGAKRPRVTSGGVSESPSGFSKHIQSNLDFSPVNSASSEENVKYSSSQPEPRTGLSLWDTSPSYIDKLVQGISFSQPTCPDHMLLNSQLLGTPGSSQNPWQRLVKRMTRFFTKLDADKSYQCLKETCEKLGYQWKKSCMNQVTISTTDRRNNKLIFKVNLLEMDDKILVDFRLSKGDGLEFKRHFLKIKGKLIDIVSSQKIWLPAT
Sphingosine 1-phosphate receptor 2, sequence (O95136 whole entry): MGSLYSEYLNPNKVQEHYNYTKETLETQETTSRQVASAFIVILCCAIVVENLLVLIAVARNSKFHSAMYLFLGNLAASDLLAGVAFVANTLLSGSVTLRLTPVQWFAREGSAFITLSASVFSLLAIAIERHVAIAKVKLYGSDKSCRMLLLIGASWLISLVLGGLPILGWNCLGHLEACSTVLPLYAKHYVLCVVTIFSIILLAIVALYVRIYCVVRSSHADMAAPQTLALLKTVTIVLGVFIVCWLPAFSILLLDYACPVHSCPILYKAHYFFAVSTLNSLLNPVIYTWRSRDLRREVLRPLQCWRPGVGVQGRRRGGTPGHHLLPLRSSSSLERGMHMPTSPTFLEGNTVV
cAMP-dependent protein kinase catalytic subunit PRKX, sequence (P51817 whole entry): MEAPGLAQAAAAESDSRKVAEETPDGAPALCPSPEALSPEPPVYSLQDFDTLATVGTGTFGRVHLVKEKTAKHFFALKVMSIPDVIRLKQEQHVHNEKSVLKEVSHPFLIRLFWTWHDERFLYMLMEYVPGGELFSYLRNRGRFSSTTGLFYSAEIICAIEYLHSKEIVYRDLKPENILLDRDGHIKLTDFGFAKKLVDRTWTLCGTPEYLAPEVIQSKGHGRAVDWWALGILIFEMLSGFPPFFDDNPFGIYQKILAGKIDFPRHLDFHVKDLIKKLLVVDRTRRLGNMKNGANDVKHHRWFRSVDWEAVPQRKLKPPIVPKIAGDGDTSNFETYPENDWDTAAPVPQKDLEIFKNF
Serine/threonine-protein kinase pim-1, sequence (P11309 whole entry): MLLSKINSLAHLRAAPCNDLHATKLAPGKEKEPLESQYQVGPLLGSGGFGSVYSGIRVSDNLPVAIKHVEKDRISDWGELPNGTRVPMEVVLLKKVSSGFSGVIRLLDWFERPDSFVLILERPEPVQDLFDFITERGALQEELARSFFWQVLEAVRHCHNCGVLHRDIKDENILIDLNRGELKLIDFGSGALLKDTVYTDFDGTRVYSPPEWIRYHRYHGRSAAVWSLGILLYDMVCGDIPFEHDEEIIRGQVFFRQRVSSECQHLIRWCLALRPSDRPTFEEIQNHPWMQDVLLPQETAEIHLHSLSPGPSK

Structure (SMILES): CNc1nc(SCc2ccccc2Cl)nc2c1CCCC2
- CC50 [1]: 9.68 µM (active)
- AC50 [2]: 8.66 µM (active)
- EC50 [3]: 4.73 µM (active)
- CC50 [4]: 49.2 µM (active)
- CC50 [5]: 25.6 µM (active)
- CC50 [6]: 36.2 µM (active)

Structure (SMILES): CC/N=C1/S/C(=C/c2cc(C)n(-c3ccccn3)c2C)C(=O)N1CC
- EC50 [7]: 0.103 µM (active)
- EC50 [8]: 0.72 µM (active)
- EC50 [9]: > 25 µM (inactive)
- EC50 [10]: > 25 µM (inactive)

Structure (SMILES): COc1ccc(C(=O)Nc2ccccc2C(=O)O)cc1OC
- Ki [11]: 2.51 µM (active)
- Ki [12]: 5.01 µM (active)
- Ki [13]: 1.58 µM (active)
- Ki [14]: 1.58 µM (active)

Structure (SMILES): C[C@H](CO)N1C[C@H](C)[C@@H](CN(C)S(=O)(=O)c2ccccc2)Oc2ccc(NC(=O)Cc3cn(C)c4ccccc34)cc2C1=O
- AC50 [15]: 0.125 µM (active)
- AC50 [16]: 4.29 µM (active)

Structure (SMILES): CCN1CCN(c2ccc(Nc3ncc(Cl)c(Nc4ccc(O)c(NC(C)=O)c4)n3)cc2)CC1
- Ki [17]: 0.501 µM (active)
- Ki [18]: 0.00794 µM (active)

Structure (SMILES): O=C(O)C1CN(Cc2ccc(OCc3cccc(C(F)(F)F)c3)cc2F)C1
- Ki [19]: 2.51 µM (active)
- Ki [20]: 3.16 µM (active)

Structure (SMILES): CCN(CC)CCn1c(NCc2nc3ccccc3n2Cc2ccccc2)nc2ccccc21
- EC50 [21]: 4.94 µM (active)
- EC50 [22]: 11.4 µM (active)

Structure (SMILES): O=c1cc(-c2ccccc2)nc(NC2CCCCC2)[nH]1
- Ki [17]: > 5.01 µM (inactive)
- Ki [23]: 0.251 µM (active)

Structure (SMILES): O=[N+]([O-])c1c(O)nc2ccc(Cl)cc2c1-c1ccccc1
- IC50 [24]: > 66.2 µM (inactive)
- IC50 [25]: > 49.8 µM (inactive)
- IC50 [26]: 0.915 µM (active)
- IC50 [27]: > 49.8 µM (inactive)
- IC50 [28]: > 88.8 µM (inactive)
- IC50 [29]: 1.5 µM (active)

Structure (SMILES): CCSc1nnc(-c2sc3nnc(-c4ccccc4)c(-c4ccccc4)c3c2N)o1
- IC50 [30]: 2.44 µM (active)
- IC50 [31]: 4.62 µM (active)
- AC50 [2]: 0.286 µM (active)
- EC50 [32]: 6.9 µM (active)
